Source: patent US6716987B1, “Derivatives of benzofuran or benzodioxazole compounds” (Kyowa Hakko Kogyo Co., Ltd., priority 1995, dated 2004)

System: cAMP-specific phosphodiesterase (PDE IV)
Experiment: Inhibition of the PDE IV enzyme derived from a dog trachea
Assay type: biochemical
Conditions: test compound 10^−6 M; PDE IV from dog tracheal smooth muscle; substrate cAMP 1 μM
Protocol: cAMP-specific phosphodiesterase (PDE IV) was purified from a dog tracheal smooth muscle according to the method of Torphy et al. [Molecular Pharmacol., 37, 206-214 (1990)]. The PDE activity was measured by the following two steps according to the method of Kincaid and Manganiello et al. [Method in Enzymology (J. D. Corbin and R. A. Jonson, Eds.), 199, 457-470 (1988)]. Using [^3]cAMP (at a final concentration of 1 μM) as a substrate, the reaction was carried out in a standard mixture containing N,N-bis(2-hydroxyethyl)-2-aminoethanesulfonic acid (50 mM, pH=7.2), MgCl2 (1 mM), and soybean trypsin inhibitor (0.1 mg/ml). The reaction was initiated by adding the enzyme, followed by incubation at 30° C. for 10 to 30 minutes. After stopping the reaction with hydrochloric acid, the generated […] was completely converted to adenosine by 5′-nucleotidase.
The resultant was subjected to chromatography on DEAE-Sephadex A-25, and radio activity of the eluted [^3H] adenosine was counted using a scintillation counter. Each of the test drugs was dissolved in DMSO (final concentration 1.7%) and then added to the mixture.

Compound | Enzyme Inhibitory Activity (%, 10^−6 M)
COc1ccc(/C=C/c2ccncc2)c2c1OCC2C (racemic) [Compound 79, (E)-(±)-7-Methoxy-3-methyl-4-[2-(4-pyridyl)ethenyl]-2,3-dihydrobenzofuran] | 45%
COc1ccc(C(=O)Cc2ccncc2)c2c1O[C@@H]1CCCC[C@H]21.Cl (racemic) [Compound 105, (±)-cis-6-Methoxy-9-[1-oxo-2-(4-pyridyl)ethyl]-1,2,3,4,4a,9b-hexahydrodibenzofuran.hydrochloride] | 66%
COc1ccc(C(=O)Nc2c(Cl)cncc2Cl)c2ccoc12 [Compound 33, 4-[(3,5-Dichloro-4-pyridyl)aminocarbonyl]-7-methoxy-benzofuran] | 71%
COc1ccc(C(=O)Nc2c(Cl)cncc2Cl)c2cc(C#N)oc12 [Compound 34, 2-Cyano-4-(3,5-dichloropyridin-4-ylaminocarbonyl)-7-methoxybenzofuran] | 100%
COc1ccc(C(=O)Nc2ccncc2)c2cc(-c3ccncc3)oc12.Cl.Cl [Compound 39, 7-Methoxy-2-(4-pyridyl)-4-(4-pyridylaminocarbonyl)-benzofuran.2 hydrochloride] | 77%
COc1ccc(C(=O)Nc2ccncc2)c2cc(-c3ccccn3)oc12.Cl.Cl [Compound 41, 7-Methoxy-2-(2-pyridyl)-4-[(4-pyridylamino)carbonyl]-benzofuran.2 hydrochloride] | 58%
CCC1(CC)Cc2c(CCc3c(Cl)cncc3Cl)ccc(OC)c2O1.CS(=O)(=O)O [Compound 50, 4-[2-(3,5-Dichloro-4-pyridyl)ethyl]-2,2-diethyl-7-methoxy-2,3-dihydrobenzofuran.methanesulfonate] | 69%
CCC1(CC)Cc2c(CCc3ccncc3)ccc(OC)c2O1.Cl [Compound 51, 2,2-Diethyl-7-methoxy-4-[2-(4-pyridyl)ethyl]-2,3-dihydrobenzofuran.hydrochloride] | 67%
COc1ccc(CCc2c(Cl)cncc2Cl)c2c1OC1(CCCC1)C2.CS(=O)(=O)O [Compound 52, 4-[2-(3,5-Dichloro-4-pyridyl)ethyl]-7-methoxy-spiro[2,3-dihydrobenzofuran-2,1′-cyclopentane].methanesulfonate] | 86%
COc1ccc(CCc2ccncc2)c2c1OC1(CCCC1)C2.Cl [Compound 53, 7-Methoxy-4-[2-(4-pyridyl)ethyl]-spiro[2,3-dihydro-benzofuran-2,1′-cyclopentane].hydrochloride] | 84%
COc1ccc(CCc2c(Cl)cncc2Cl)c2c1OC1(CCCCC1)C2.CS(=O)(=O)O [Compound 54, 4-[2-(3,5-Dichloro-4-pyridyl)ethyl]-7-methoxy-spiro[2,3-dihydrobenzofuran-2,1′-cyclohexane].methanesulfonate] | 81%
COc1ccc(CCc2ccncc2)c2c1OC1(CCCCC1)C2.Cl [Compound 55, 7-Methoxy-4-[2-(4-pyridyl)ethyl]-spiro[2,3-dihydro-benzofuran-2,1′-cyclohexane].hydrochloride] | 86%
COc1ccc(C(=Cc2ccncc2)c2ccccc2)c2c1OC(C)(C)C2 [Compound 70, 7-Methoxy-2,2-dimethyl-4-[1-phenyl-2-(4-pyridyl)-ethenyl]-2,3-dihydrobenzofuran] | 68%
CCC1(CC)Cc2c(/C=C/c3c(Cl)cncc3Cl)ccc(OC)c2O1.CS(=O)(=O)O [Compound 71, (E)-2,2-Diethyl-7-methoxy-4-[2-(3,5-dichloro-4-pyridyl)ethenyl]-2,3-dihydrobenzofuran.methanesulfonate] | 87%
COc1ccc(/C=C/c2ccncc2)c2c1OC1(CCCC1)C2.Cl [Compound 74, (E)-7-Methoxy-4-[2-(4-pyridyl)ethenyl]-spiro[2,3-dihydrobenzofuran-2,1′-cyclopentane].hydrochloride] | 73%
COc1ccc(C(C)=Cc2ccncc2)c2c1OC1(CCCC1)C2 [Compound 75, 7-Methoxy-4-[1-methyl-2-(4-pyridyl)ethenyl]-spiro[2,3-dihydrobenzofuran-2,1′-cyclopentane]] | 72%
COc1ccc(/C=C/c2c(Cl)cncc2Cl)c2c1OC1(CCCCC1)C2.CS(=O)(=O)O [Compound 76, (E)-4-[2-(3,5-Dichloro-4-pyridyl)ethenyl]-7-methoxy-spiro[2,3-dihydrobenzofuran-2,1′-cyclohexane].methanesulfonate] | 93%
COc1ccc(/C=C/c2ccncc2)c2c1OC1(CCCCC1)C2.Cl [Compound 77, (E)-7-Methoxy-4-[2-(4-pyridyl)ethenyl]-spiro[2,3-dihydrobenzofuran-2,1′-cyclohexane].hydrochloride] | 87%

Compound | Enzyme Inhibitory Activity (%, 10^−6 M)
COc1ccc(/C=C/c2ccncc2)c2cc(-c3ccccc3)oc12.Cl [Compound 81, (E)-7-Methoxy-2-phenyl-4-[2-(4-pyridyl)ethenyl]-benzofuran.hydrochloride] | 56%
COc1ccc(/C=C/c2ccncc2)c2cc(-c3ccncc3)oc12.Cl.Cl [Compound 83, (E)-7-Methoxy-2-(4-pyridyl)-4-[2-(4-pyridyl)ethenyl]-benzofuran.2 hydrochloride] | 89%
COc1ccc(/C=C/c2ccncc2)c2cc(-c3ccccn3)oc12.Cl.Cl [Compound 85, (E)-7-Methoxy-2-(2-pyridyl)-4-[2-(4-pyridyl)ethenyl]-benzofuran.2 hydrochloride] | 69%
COC(=O)c1cccc(NC(=O)/C=C/c2ccc(OC)c3c2CC2(CCCC2)O3)c1 [Compound 93, (E)-7-Methoxy-4-{2-[3-(methoxycarbony)phenyl-1-ylaminocarbonyl]ethenyl}-spiro[2,3-dihydrobenzofuran-2,1′-cyclopentane]] | 23%
CCC1(CC)Cc2c(C(=O)Cc3ccncc3)ccc(OC)c2O1.Cl [Compound 98, 2,2-Diethyl-7-methoxy-4-[1-oxo-2-(4-pyridyl)ethyl]-2,3-dihydrobenzofuran.hydrochloride] | 85%
COc1ccc(C(=O)Cc2ccccc2)c2cc(C(=O)c3ccccc3)oc12 [Compound 107, 2-Benzoyl-7-methoxy-4-(1-oxo-2-phenylethyl)benzofuran] | 63%
CCCCc1cc2c(C(=O)Cc3ccncc3)ccc(OC)c2o1.Cl [Compound 109, 2-Butyl-7-methoxy-4-[1-oxo-2-(4-pyridyl)ethyl]-benzofuran.hydrochloride] | 68%
COc1ccc(C(=O)Cc2ccncc2)c2cc(CC(C)C)oc12.Cl [Compound 110, 7-Methoxy-2-(2-methylpropyl)-4-[1-oxo-2-(4-pyridyl)-ethyl]benzofuran.hydrochloride] | 80%
COc1ccc(C(=O)Cc2ccncc2)c2cc(-c3ccccc3)oc12.Cl [Compound 111, 7-Methoxy-4-[1-oxo-2-(4-pyridyl)ethyl]-2-phenyl-benzofuran.hydrochloride] | 69%
COc1ccc(C(=O)Cc2ccncc2)c2cc(-c3ccncc3)oc12.Cl.Cl [Compound 115, 7-Methoxy-4-[1-oxo-2-(4-pyridyl)ethyl]-2-(4-pyridyl)-benzofuran.2 hydrochloride] | 85%
COc1ccc(C(=O)Cc2ccncc2)c2cc(-c3ccccn3)oc12.Cl.Cl [Compound 117, 7-Methoxy-4-[1-oxo-2-(4-pyridyl)ethyl]-2-(2-pyridyl)-benzofuran.2 hydrochloride] | 87%
COc1ccc(C(=O)Cc2ccncc2)c2c(-c3ccccc3)coc12.Cl [Compound 118, 7-Methoxy-4-[1-oxo-2-(4-pyridyl)ethyl]-3-phenyl-benzofuran.hydrochloride] | 80%
COc1ccc(C(=O)Nc2ccncc2)c2c1OC1(CCCC1)CC2.CS(=O)(=O)O [Compound 124, 8-Methoxy-5-(4-pyridylaminocarbonyl)-spiro[3,4-dihydrobenzopyran-2,1′-cyclopentane].methanesulfonate] | 57%
COc1ccc(C=Cc2ccncc2)c2c1OC1(CCCC1)CC2.Cl [Compound 125, 8-Methoxy-5-[2-(4-pyridyl)ethenyl]-spiro[3,4-dihydrobenzopyran-2,1′-cyclopentane].hydrochloride] | 71%
COc1ccc(C=Cc2ccncc2)c2c1OC1(CCCCC1)CC2.Cl [Compound 126, 8-Methoxy-5-[2-(4-pyridyl)ethenyl]-spiro[3,4-dihydrobenzopyran-2,1′-cyclohexane].hydrochloride] | 58%
COc1ccc(C(=O)Cc2ccncc2)c2c1OC1(CCCC1)CC2.Cl [Compound 127, 8-Methoxy-5-[1-oxo-2-(4-pyridyl)ethyl]-spiro[3,4-dihydrobenzopyran-2,1′-cyclopentane].hydrochloride] | 70%
COc1ccc(C(=O)Cc2ccncc2)c2c1OC1(CCCCC1)CC2.Cl [Compound 128, 8-Methoxy-5-[1-oxo-2-(4-pyridyl)ethyl]-spiro[3,4-dihydrobenzopyran-2,1′-cyclohexane].hydrochloride] | 62%
